This is an account of results in patent publication US20240159675A1, “METHODS AND DEVICES FOR RATIOMETRIC CHARACTERIZATION OF FLUORESCENT PARTICLES” (NANOTEMPER TECHNOLOGIES GMBH, priority 2021, published 2024).

By Kd is commonly meant the constant that tells how readily two partners part at equilibrium.

The target in data set [1] is Cy5-labeled DNA aptamer. Briefly: Ratiometric measurement with a standard fluorescence microplate-reader, AMP dilution series (Example 1). It is filed as binding. The settings on record: 20 nM Cy5-labeled DNA aptamer, read-out: dissociation constant (Kd), midpoint of dose-response curve. How it is done: (§1) A 14-point 1-to-1 dilution series of unlabeled AMP was prepared. The DNA aptamer was fluorescently labeled with Cy5 and added in equal amounts to the AMP dilution series to obtain a final sample concentration of 20 nM. The highest concentration of AMP corresponded to 5 mM. For measurements with a standard fluorescence microplate-reader (CLARIOstar, BMG Labtech) 95 […] of the sample were loaded into a micro-well plate.
(§2) For the microplate-reader measurements, the sample was excited at a wavelength of 590 nm and the emission was first detected at a wavelength of 628 nm to 652 nm. Then, the sample was again excited at the 590 nm wavelength and the emission was detected at a wavelength of 665 nm to 725 nm. Three subsequent fluorescence intensity measurements of the dilution series were run.
In order to characterize the interaction with the fluorescence microplate-reader, the ratio between the fluorescence intensities per well was calculated manually by using a commercially available calculation tool (Microsoft Excel). The fluorescence detected at the higher wavelength was divided by the fluorescence detected at the lower wavelength. The sigmoidal dose-response curve provided in FIG. 10A starts at a ratio value of approx. 0.95 and ends at a ratio value of approx. 0.90. The midpoint, which corresponds to the dissociation constant (Kd) of the interaction, lies at approx. 20-30 μM. […]

The target in data set [2] is Cy5-labeled DNA aptamer. Kind of data set: Ratiometric measurement with the dual-emission configuration, AMP dilution series (Example 1). It is filed as binding. The following applies: 20 nM Cy5-labeled DNA aptamer, read-out: Kd of the interaction. How it is done:
as §1, §2
When using lower sample concentrations, i.e. 250 pM, for the ratiometric measurement according to the present invention, the signal-to-noise ratio (S/N) is still very good (19.8) and a Kd of the interaction can be easily determined (FIG. 10C).

Data set [3] has as its target Cy5-labeled DNA aptamer for adenosine. Briefly: Kd-over-time curve, dual-emission configuration with IR laser, AMP (Example 10). The data set is classed as binding. The settings on record: FIG. 23A. How it is done:
For the aptamer, a 12-point 1-to-1 dilution series of unlabeled AMP was prepared. The DNA aptamer was fluorescently labeled with Cy5 and added in equal amounts to the AMP dilution series to obtain a final sample concentration of 20 nM. The highest concentration of AMP corresponded to 2 mM.
(§3) At the timepoint 0 s, an IR laser was switched on. The response of the fluorescence intensity was simultaneously measured for 6 s (aptamer), respectively 21 s (DNA hybridization).
(§4) From above it is evident that information on the binding interaction (e.g. Kd) can be derived from any “vertical” slice in time along the ratiometric traces, when the method of the present invention is used in combination with fast IR laser heating. A new type of curve, which can be described as Kd-over-time curve can be generated. From this curve not only information on the thermodynamics but also on the binding kinetics of the interaction can be determined. In particular, if the equilibration kinetics of an interaction is slower than the heating with the IR laser, the Kd-over-time curve will show a characteristic lag.
(§5) The Kd-over-time curves provided in FIG. 23 reveal three different interactions with different dissociation constants Kd and binding kinetics.

A further data set concerns the target streptavidin (Streptomyces avidinii, UniProt P22629). Briefly: Emission spectrum of fluorescently labeled streptavidin alone and in complex with biotin. The data set is classed as binding. The source says: (§6) Shifts of 3 nm and of approx. 500 pm correspond to relative changes in the fluorescence ratio of about 37.3% and 5.5%, respectively (Table 3).
The target of data set [4] is fluorescently labeled streptavidin (Streptomyces avidinii, UniProt P22629). Kind of data set: Ratiometric dual-emission dose-response, biotin dilution series (Example 4). It is filed as binding. The settings on record: 20 nM streptavidin. Here is the method:
A 12-point 1-to-1 dilution series of unlabeled biotin was prepared. […] The highest concentration of biotin corresponded to 500 nM.
As evident from the dose-response curve shown in FIG. 17, the ratio changed from a value of approx. 2.2 to approx. 1.2 when streptavidin is unbound or in complex with biotin, respectively. Since the target concentration is much higher than the Kd, a characteristic kink at the stoichiometry point at a concentration of 80 nM biotin can be observed.

The target of data set [5] is T1, lysozyme (Gallus gallus, UniProt P00698). Briefly: Emission spectrum of fluorescently labeled lysozyme alone and in complex with NAG3. It is filed as binding. The following applies: corresponding to the spectral shift (Table 3).
Description: as §6

In data set [6] the target is T1, lysozyme. Briefly: Ratio 350 nm/330 nm of intrinsic tryptophan fluorescence during thermal melting ramp 35° C. to 95° C. The following applies: increasing / very high concentrations of NAG3, unlabeled lysozyme. The data set is classed as binding. Here is the method: To monitor the temperature of denaturation, each sample is heated from 35° C. to 95° C. […] This shift cannot be used to extract the dissociation constant of this interaction.
The alterations in the fluorescence spectrum are independent of the nature of the fluorescent label, i.e. they equally appear in intrinsic as well as extrinsic fluorescent labels. However, the extend of the alterations in the fluorescence spectrum may be increased for certain classes of labels.

Data set [7] is described as follows: Fluorescence ratio of labeled protein over time at room temperature (Example 9). The data set is classed as physicochemical. The following applies: 20 nM labeled protein, 0, 3, 8 and 19 minutes. Here is the method: The labeled protein was then diluted to a concentration of 20 nM and loaded into a polymer-coated borosilicate glass capillary (Monolith NT.115 Premium Capillaries, MO-K025, NanoTemper Technologies).
The sample was excited at a wavelength of 591 nm. […] Measurements were performed directly after dilution (t=0 min) and again after 3, 8 and 19 minutes inside the capillary.

The test system of data set [8] is complementary 11-mer DNA strand labeled with Cy5. Kind of data set: Kd-over-time curve of DNA hybridization, dual-emission configuration with IR laser (Example 10). It is filed as binding. Here is the method:
For the DNA hybridization, a 16-point 1-to-1 dilution series of the unlabeled 11-mer (sequence: 5′ CCT GAA GTC C 3′) was prepared. The complementary 11-mer (sequence: 5′ GGA CTT CAG G 3′) was fluorescently labeled at its 5′ end with Cy5 and added in equal amounts to the dilution series to obtain a final sample concentration of 10 nM. The highest concentration of the unlabeled 11-mer corresponded to 100 μM.
as §3, §4, §5

Read-outs that look alike come from different tables or passages of the source. {Cy5} = Cy5 dye label

T1 sequence (P00698 19-147): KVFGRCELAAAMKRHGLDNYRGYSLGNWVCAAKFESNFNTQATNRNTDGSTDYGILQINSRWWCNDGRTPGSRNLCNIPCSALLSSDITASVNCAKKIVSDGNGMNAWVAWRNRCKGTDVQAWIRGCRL
Sequence of streptavidin (P22629 25-183, species assumed): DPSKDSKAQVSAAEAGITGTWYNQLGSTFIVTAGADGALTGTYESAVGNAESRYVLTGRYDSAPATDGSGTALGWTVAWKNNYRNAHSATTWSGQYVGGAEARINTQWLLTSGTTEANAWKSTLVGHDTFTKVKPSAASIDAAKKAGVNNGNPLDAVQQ
Sequence of fluorescently labeled streptavidin (P22629 25-183, species assumed): as above

As to `Nc1ncnc2c1ncn2[C@@H]1O[C@H](COP(=O)(O)O)[C@@H](O)[C@H]1O` [AMP, adenosine monophosphate], the Kd was 20 to 30 µM at Cy5-labeled DNA aptamer [1], 39.3 µM on Cy5-labeled DNA aptamer [2] and approximately 30 µM in data set [3] (Kd-over-time curve). The koff result in data set [3] (estimated from Kd-over-time curve) was “greater than 10 s^−1”.
For `O=C(O)CCCC[C@@H]1SC[C@@H]2NC(=O)N[C@@H]21` [biotin], the “relative change in the fluorescence ratio” value at streptavidin (corresponding to the spectral shift (Table 3)) is “about 37.3%”. In addition, the “shift of the maximum emission peak wavelength” value on streptavidin (streptavidin 200 nM, biotin 2 μM, excitation 605 nm) was found to be 3 nm. Further, the “stoichiometry point (kink in dose-response curve)” value in data set [4] (concentration of biotin) was found to be 80 nM. For the same molecule, in [4] (unbound approx. 2.2), the “ratio 670 nm/650 nm of streptavidin in complex with biotin” value is “approx. 1.2”.
Take `CC(=O)N[C@H]1[C@H](O[C@H]2[C@H](O)[C@@H](NC(C)=O)C(O)O[C@@H]2CO)O[C@H](CO)[C@@H](O[C@@H]2O[C@H](CO)[C@@H](O)[C@H](O)[C@H]2NC(C)=O)[C@@H]1O` (stereo partly drawn) [NAG3, Tri-N-acetyl-D-glucosamine]: the “relative change in the fluorescence ratio” value at lysozyme [5] was approximately 5.5%. The “effect on thermal denaturation of lysozyme” value at lysozyme [6] is recorded as “thermal stabilization”.
“Mitogen-activated protein kinase 14 (p38-α): Mitogen-activated protein kinase 14, fluorescently labeled with Protein Labeling Kit RED-NHS 2nd Generation”: the “stability at room temperature (fluorescence ratio over about 20 minutes)” value in data set [7] is on record as “not stable at room temperature but gradually denatures”.
“11-mer complementary DNA strands: unlabeled 11-mer (5′ CCT GAA GTC C 3′) titrated against complementary 11-mer (5′ GGA CTT CAG G 3′) labeled at 5′ end with Cy5 (chain 1 CCTGAAGTCC; chain 2 GGACTTCAGG; chain 1: DNA, backbone not given here; chain 2: DNA, 5' {Cy5}, backbone not given here)”: the koff entry in data set [8] (measured at 22° C., FIG. 23C) is listed as “smaller than 0.01 s^−1”; in [8] (measured at 32° C., estimated, FIG. 23B) it was “approx. 1 s^−1”. The Kd in [8] (measured at 22° C., FIG. 23C, read-out: Kd) is approximately 0.005 µM; in data set [8] (sample temperature 22° C., FIG. 24B, read-out: Kd value at start of IR laser on-time), approximately 0.01 µM; in [8] (temperature after IR laser heating approx. 32° C., FIG. 24B, read-out: Kd value after IR laser heating) it was approximately 0.5 µM.
